# Peptide text beside a SMILES is read from it.
# Assays:
# [1] = molecular target: T1, DppBCDF translocator (nucleotide and cluster site of DppF) (Escherichia coli, UniProt P37313); assay: cryo-EM structure of the complex ([…] Å); type: binding; conditions: cluster in DppF, ligands Cys293, Cys299, Cys306, Cys323; 2 mM DTT
# T1 construct: heterotetramer, C-terminal Strep-tag II, expressed in E. coli, DDM then GDN detergent; with Dipeptide transport system permease protein DppB; Dipeptide transport system permease protein DppC
# [2] = molecular target: T2, DppBCDF translocator (cluster site of DppD) (Escherichia coli, UniProt P0AAG0); assay: cryo-EM structure of the complex ([…] Å); type: binding; conditions: cluster in DppD, ligands Cys284, Cys290, Cys297, Cys315; 2 mM DTT
# T2 construct: same complex as P2: heterotetramer, C-terminal Strep-tag II, expressed in E. coli, GDN detergent; with Dipeptide transport system permease protein DppB; Dipeptide transport system permease protein DppC
# [3] = molecular target: T3, DppA (Escherichia coli, UniProt P23847); assay: isothermal titration calorimetry; type: binding; conditions: read-out: affinity
# T3 construct: soluble periplasmic protein, His-tagged, Ni-NTA with guanidine wash to remove endogenous peptides; expressed in E. coli
# T3 sequence (P23847 29-535): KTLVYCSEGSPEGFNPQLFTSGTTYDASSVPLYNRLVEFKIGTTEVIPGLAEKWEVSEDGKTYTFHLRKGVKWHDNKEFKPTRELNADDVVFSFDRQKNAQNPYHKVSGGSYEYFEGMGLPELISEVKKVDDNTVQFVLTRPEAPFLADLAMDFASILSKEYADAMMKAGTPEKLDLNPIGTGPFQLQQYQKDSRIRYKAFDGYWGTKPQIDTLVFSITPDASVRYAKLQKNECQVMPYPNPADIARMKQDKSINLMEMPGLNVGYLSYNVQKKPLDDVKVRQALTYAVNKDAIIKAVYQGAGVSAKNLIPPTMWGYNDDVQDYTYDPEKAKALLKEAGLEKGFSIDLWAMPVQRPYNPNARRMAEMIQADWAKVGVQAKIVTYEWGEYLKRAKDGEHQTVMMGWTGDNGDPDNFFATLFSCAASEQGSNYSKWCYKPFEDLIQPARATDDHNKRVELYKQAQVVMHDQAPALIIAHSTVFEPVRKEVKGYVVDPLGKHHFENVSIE
# [4] = molecular target: T4, DppABCDF full transporter (Escherichia coli, UniProt P0AAG0+P37313, P0AAG0:E179Q/P37313:E187Q); assay: cryo-EM structure of the complex ([…] Å); type: binding; conditions: 2 mM ATPγS, 2 mM MgCl2, on ice; outward-facing; two molecules at the DppD-DppF interface
# T4 construct: gene dppD; heteropentamer; structure: DppA C-terminal His-tag and Strep tag, GDN; ATPase: DppBCDF in MSP1E3D1/POPG nanodiscs plus separately purified DppA; Dipeptide transport system permease protein DppB; Dipeptide transport system permease protein DppC
# [5] = system: T5, DppABCDF full transporter; assay: malachite green phosphate ATPase assay, nanodiscs; type: biochemical, Escherichia coli; conditions: DppA added, Mg2+, pH 7.5, 37 °C; with or without Ala-Ala
# T5 construct: gene dppD; heteropentamer; structure: DppA C-terminal His-tag and Strep tag, GDN; ATPase: DppBCDF in MSP1E3D1/POPG nanodiscs plus separately purified DppA; Dipeptide transport system permease protein DppB; Dipeptide transport system permease protein DppC
# T5 sequence (P0AAG0 whole entry, one chain of several): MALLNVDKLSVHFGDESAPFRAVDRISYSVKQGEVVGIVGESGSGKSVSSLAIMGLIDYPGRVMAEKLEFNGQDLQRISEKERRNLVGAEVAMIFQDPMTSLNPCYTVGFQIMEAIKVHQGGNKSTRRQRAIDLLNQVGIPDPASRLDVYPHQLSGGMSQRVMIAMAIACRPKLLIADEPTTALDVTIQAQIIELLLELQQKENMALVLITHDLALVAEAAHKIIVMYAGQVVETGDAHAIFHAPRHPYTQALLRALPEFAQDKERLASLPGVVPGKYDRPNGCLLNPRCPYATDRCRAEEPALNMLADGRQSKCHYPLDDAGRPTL
# T5 sequence (P0AEF8 whole entry, one chain of several, further chain): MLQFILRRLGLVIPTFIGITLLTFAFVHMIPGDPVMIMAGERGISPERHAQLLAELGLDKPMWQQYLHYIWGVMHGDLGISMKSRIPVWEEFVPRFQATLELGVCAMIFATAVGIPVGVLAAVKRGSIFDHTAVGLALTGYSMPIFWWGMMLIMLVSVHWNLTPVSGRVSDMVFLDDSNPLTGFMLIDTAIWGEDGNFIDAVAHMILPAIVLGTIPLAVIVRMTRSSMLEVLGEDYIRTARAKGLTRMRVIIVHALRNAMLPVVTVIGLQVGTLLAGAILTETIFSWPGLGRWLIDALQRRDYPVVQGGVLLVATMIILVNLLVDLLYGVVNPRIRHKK
# T5 sequence (P0AEG1 whole entry, one chain of several, further chain): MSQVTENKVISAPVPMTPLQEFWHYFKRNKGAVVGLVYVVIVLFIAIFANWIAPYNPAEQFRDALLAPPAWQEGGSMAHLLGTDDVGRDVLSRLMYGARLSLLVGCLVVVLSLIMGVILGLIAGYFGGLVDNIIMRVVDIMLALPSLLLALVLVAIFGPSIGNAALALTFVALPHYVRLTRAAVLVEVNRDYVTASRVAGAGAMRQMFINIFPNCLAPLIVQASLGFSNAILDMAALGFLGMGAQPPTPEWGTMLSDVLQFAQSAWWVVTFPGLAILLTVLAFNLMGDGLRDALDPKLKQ
# T5 sequence (P37313 whole entry, one chain of several, further chain): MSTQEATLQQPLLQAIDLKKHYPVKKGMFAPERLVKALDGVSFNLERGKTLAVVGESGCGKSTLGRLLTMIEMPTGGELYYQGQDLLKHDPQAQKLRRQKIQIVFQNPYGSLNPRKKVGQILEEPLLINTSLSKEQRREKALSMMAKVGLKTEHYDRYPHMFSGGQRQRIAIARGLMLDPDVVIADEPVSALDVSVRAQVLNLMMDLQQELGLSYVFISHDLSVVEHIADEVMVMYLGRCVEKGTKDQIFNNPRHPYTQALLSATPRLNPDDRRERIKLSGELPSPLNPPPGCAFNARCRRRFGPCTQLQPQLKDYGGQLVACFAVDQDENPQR
# T1 sequence (P37313 whole entry): as the sequence (P37313 whole entry, one chain of several, further chain) above
# T1 sequence (P0AEF8 whole entry partner): as the sequence (P0AEF8 whole entry, one chain of several, further chain) above
# T1 sequence (P0AEG1 whole entry partner): as the sequence (P0AEG1 whole entry, one chain of several, further chain) above
# T1 sequence (P0AAG0 whole entry partner): as the sequence (P0AAG0 whole entry, one chain of several) above
# T2 sequence (P0AAG0 whole entry): as the sequence (P0AAG0 whole entry, one chain of several) above
# T2 sequence (P0AEF8 whole entry partner): as the sequence (P0AEF8 whole entry, one chain of several, further chain) above
# T2 sequence (P0AEG1 whole entry partner): as the sequence (P0AEG1 whole entry, one chain of several, further chain) above
# T2 sequence (P37313 whole entry partner): as the sequence (P37313 whole entry, one chain of several, further chain) above
# T4 sequence (P0AAG0 whole entry E179Q, one chain of several): as the sequence (P0AAG0 whole entry, one chain of several) above, with E179Q counted along it
# T4 sequence (P37313 whole entry E187Q, one chain of several): as the sequence (P37313 whole entry, one chain of several, further chain) above, with E187Q counted along it
# T4 sequence (P0AEF8 whole entry partner, one chain of several): as the sequence (P0AEF8 whole entry, one chain of several, further chain) above
# T4 sequence (P0AEG1 whole entry partner, one chain of several): as the sequence (P0AEG1 whole entry, one chain of several, further chain) above
smiles,measurement,setting,value
[S]12[Fe]3[S]4[Fe]1[S]1[Fe]2[S]3[Fe]41 [[4Fe-4S] cluster],cryo-EM structure of the complex (3.2 Å),[1],"the [4Fe-4S] cluster in DppF is coordinated by Cys293, Cys299, Cys306 and Cys323"
same,cryo-EM structure of the complex (3.2 Å),[2],"The [4Fe-4S] cluster in DppD is coordinated by Cys284, Cys290, Cys297 and Cys315"
"C[C@H](N)C(=O)N[C@@H](C)C(=O)O [AA, Ala-Ala] (H-Ala-Ala-OH)",Kd,[3],~13.9 nM
Nc1ncnc2c1ncn2[C@@H]1O[C@H](COP(=O)(O)OP(=O)(O)OP(O)(O)=S)[C@@H](O)[C@H]1O [ATPγS],cryo-EM structure of the complex (2.73 Å),[4],two ATPγS molecules bound at the interface of the two NBDs
"CC(C)C[C@H](NC(=O)CN)C(=O)O [GL, Gly-Leu]",Kd,[3],~2200 nM
Nc1ncnc2c1ncn2[C@@H]1O[C@H](COP(=O)(O)OP(=O)(O)OP(=O)(O)O)[C@@H](O)[C@H]1O [ATP],ATPase activity,[5],high ATPase activity is observed when DppA was supplied in the assay

# Source: PMC12136057, “Structural characterization of the ABC transporter DppABCDF in Escherichia coli reveals insights into dipeptide acquisition” (PLOS Biology, 2025)
